# Data from paper PMC9879403, “Oncolytic strategy using new bifunctional HDACs/BRD4 inhibitors against virus-associated lymphomas” (PLOS Pathogens, 2023).
# Columns and labels:
# BC-1 = assay: WST-1 cytotoxicity assay, BC-1 (KSHV+ PEL); type: cell-based; settings: Homo sapiens, BC1, 72 h, read-out: CC50, BC-1
# Description: (§1) Fig 2 Identification of newly synthesized dual inhibitors with anti-PEL activities. (A) The binding mode of (+)-JQ1 with BRD4^BD1 (PDB: 3MXF). BRD4^BD1 is shown as hot pink cartoon with gray surface. Asn140 in BRD4^BD1 is shown as sticks and colored in following pattern: atom C hot pink, atom N dark blue, and atom O yellow. (+)-JQ1 is shown as sticks and colored in following patten: atom C hot pink, atom N dark blue, atom O yellow, atom S golden, and atom Cl green. The solvent exposed region (SEG) of (+)-JQ1 are indicated with white arrow. (B) The binding modes of SAHA and entinostat with HDAC2 (PDB: 3MAX). HDAC2 is shown as blue cartoon with gray surface. Asp181 and His183 in HDAC2 are shown as sticks and colored in following pattern: atom C blue, atom N dark blue, and atom O yellow. The catalytic zinc ion in the active site of HDAC2 is shown as black sphere. SAHA is shown as sticks and colored in following pattern: atom C green, atom N dark blue, and atom O yellow. Entinostat is shown as sticks and colored in following pattern: atom C hot pink, atom N dark blue, and atom O yellow. The SEG of SAHA or entinostat is indicated with white arrow. Hydrogen bonds (H-bonds) are presented by red dash lines. (C) The HDACs/BRD4 dual inhibitors 002-011 were designed by fusing the key pharmacophores of (+)-JQ1 (pink) and HDAC inhibitors (blue), SAHA or entinostat, via various chemical linkers (green). (D) Anti-PEL activities of the new compounds. Five KSHV positive and two KSHV negative lymphoma cell lines were treated with indicated concentrations of these compounds for 72 h. Then the cytotoxicity was determined using the WST-1 assay. (+)-JQ1, SAHA and entinostat were used for the comparisons as single inhibitors. The CC50 for each compound was calculated using GraphPad Prism 5.0 software. Error bars represent S.D. for 3 independent experiments.
# (§2) Fig 4 Identification of anti-PEL activities for compound 009 stereoisomers. (A) The chemical structures of anti-HDACs/BRD4 bifunctional molecules 009P1 and 009P2, as well as anti-HDACs or anti-BRD4 mono-functional molecules 009N1, 009N2, 009N3, and 009N4. (B-C) Four KSHV+ PEL cell lines were treated with indicated concentrations of 009P1, 009P2 or 009N1-N4 for 72 h, then the cytotoxicity was determined using the WST-1 assay. (D-I) BCBL-1 cells were treated with these compounds at the respective 2× CC50 for 24 h, then cell cycle (D-F) and apoptosis (G-I) were measured by flow cytometry analysis. Error bars represent S.D. for 3 independent experiments, ** = p<0.01 (vs vehicle control).
# (§3) The cell viability following treatment with compounds was assessed by the WST-1 assay (Roche, Indianapolis, Indiana, USA) according to the manufacturer’s protocol as described previously. The absorbance signal was measured using a microplate reader (Biotek Synergy 2). The 50% cytotoxic concentration (CC50) for each compound was calculated from these dose-response curves using the software GraphPad Prism v5.0. Data were normalized as the fold change compared to the DMSO control.
# BCBL-1 cells [1] = assay: Cell death regulatory proteins by Western blot; type: cell-based; settings: 50 nM, 48 h
# JSC-1 = assay: WST-1 cytotoxicity assay, JSC-1 (KSHV+ PEL); type: cell-based; settings: 72 h, read-out: CC50, JSC-1
# Description: as §1, §2, §3
# BRD4 = BRD4 signaling by Western blot (c-Myc expression); type: cell-based; settings: BCBL-1 cells, 48 h, Western blot
# BCBL-1 = assay: WST-1 cytotoxicity assay, BCBL-1 (KSHV+ PEL); type: cell-based; settings: BCBL1, 72 h, read-out: CC50, BCBL-1
# Description: as §1, §2, §3
# BCBL-1 cells [2] = assay: RNA-Sequencing of compound-treated vs vehicle-treated cells; type: cell-based, human
# Description: RNA-Sequencing (RNA-Seq) of triplicate samples was performed by BGI Americas Corporation using their unique DNBSEQ sequencing technology. The completed RNA-Sequencing data was submitted to NCBI Sequence Read Archive (SRA# # PRJNA813422). Raw sequencing reads were analyzed using the RSEM software (version 1.3.0; human GRCh38 genome sequence and annotation) and gene expression was quantified as previously described. The EBSeq software was utilized to call differentially expressed genes that were statistically significant using a false discovery rate (FDR) less than 0.05. Differentially expressed genes between compounds- and vehicle-treated PEL cells were used as input for the GO enrichment analyses.
# KSHV [3] = type: cell-based
# HUVEC = assay: WST-1 cytotoxicity on primary cells HUVEC; type: cell-based, human
# Description: as §3
# Supplementary file ppat.1011089.s006.tif: S5 Fig Cytotoxicity of tested compounds on HUVEC. The primary cells HUVEC were treated with indicated concentrations of compounds for 72 h, then cell viability was assessed using the WST-1 assay. The CC50 for each compound was calculated from the dose-response curves using Graphpad Prism 5.0 software. Data was normalized as the fold change compared to the DMSO control. (TIF) Click here for additional data file.
# HDACs = HDACs signaling by Western blot (H3K9Ac, H4K9Ac, Acetyl-tubulin); type: cell-based; settings: BCBL-1 cells, 48 h, Western blot
# KSHV [4] = assay: Viral DNA levels in PEL cells by qPCR; type: cell-based
# BCP-1 = assay: WST-1 cytotoxicity assay, BCP-1 (KSHV+ PEL); type: cell-based; settings: BCP-1, 72 h, read-out: CC50, BCP-1
# Description: as §1, §2, §3
# BCBL-1 cells [5] = assay: PEL xenograft model (BCBL-1 cells i.p.); settings: 20 mg/kg
# Description: (A) Plasma concentrations of (+)-JQ1, SAHA, or 009P1 after a single administration of 50 mg per kg body (i.p. injection) were presented as mean ± SD (n = 3 mice per time point). (B-E) NOD/SCID mice were injected i.p. with BCBL-1 cells. 72 h later, the compounds or vehicle were administered i.p. as described in the Methods, and weights were recorded weekly. At the end of the treatment period, the splenic tissues were collected from the vehicle or compound treated mice, compared and processed with the H&E and IHC staining. (F) Plasma concentrations of 009P1 after a single administration of 50 mg per kg body (oral gavage) were presented as mean ± SD (n = 3 mice per time point). (G-I) NOD/SCID mice were injected i.p. with BCBL-1 cells. 72 h later, the compounds or vehicle were administered orally as described in the Methods, and weights were recorded weekly.
# In all NOD/SCID mice, 6–8-week-old, male (Jackson Laboratory, Ellsworth, Maine, USA), 1 × 10^7 BCBL-1 cells in 200 μL RMPI-1640 without FBS were injected intraperitoneally and then mice were randomized into treatment groups of 6 mice as described previously. The tested compounds or vehicle was administered initially at 72 h after BCBL-1 injections, and continued once daily, 2 days per week for 3 weeks. Weights were recorded weekly as a surrogate measure of tumor progression. At the end of experiment, the spleens of mice were excised for immunoblots and immunohistochemical analyses.
# Formalin-fixed, paraffin-embedded tissues were microtome-sectioned to a thickness of 4 μm and placed on electromagnetically charged slides. Immunohistochemistry was performed as described previously, and the c-Myc and H3K9Ac antibodies were purchased from Abcam. Images were collected using an Olympus BX61 microscope equipped with a high resolution DP72 camera and CellSense image capture software.
# [6] = gene expression, treated vs vehicle BCBL-1 cells
structure (smiles),measurement,setting,value
"Cc1sc2c(c1C)C(c1ccc(Cl)cc1)=N[C@@H](CC(=O)O[C@@H](C)c1ccc(C(=O)Nc3ccccc3N)cc1)c1nnc(C)n1-2 [009P2, (S)-1-(4-((2-aminophenyl)carbamoyl)phenyl)ethyl 2-((S)-4-(4-chlorophenyl)-2,3,9-trimethyl-6H-thieno[3,2-f][1,2,4]triazolo[4,3-a][1,4]diazepin-6-yl)acetate]",CC50,BC-1,5.5 nM
same,"Expression of p-RB, cleaved-caspase 3 and cleaved-PARP",BCBL-1 cells [1],strongly affected
same,CC50,JSC-1,110 nM
same,c-Myc expression,BRD4,decreased
same,CC50,BCBL-1,3.3 nM
same,Genes differentially expressed between 009P1- and 009P2-treated PEL cells,"BCBL-1 cells [2]; BCBL-1, ≥ 2 fold-change and FDR < 0.05",715 genes
same,"Ratio, ARC",BCBL-1 cells [2]; [6],17.91
same,"Ratio, ARRDC3",BCBL-1 cells [2]; [6],41.32
same,"Ratio, ATF3",BCBL-1 cells [2]; [6],22.98
same,"Ratio, CCDC169-SOHLH2",BCBL-1 cells [2]; [6],0.1511
same,"Ratio, CD28",BCBL-1 cells [2]; [6],0.1264
same,"Ratio, CD44",BCBL-1 cells [2]; [6],0.1695
same,"Ratio, CFAP58",BCBL-1 cells [2]; [6],0.2474
same,"Ratio, CHAC1",BCBL-1 cells [2]; [6],9.244
same,"Ratio, CSF1R",BCBL-1 cells [2]; [6],42.35
same,"Ratio, DDIT3",BCBL-1 cells [2]; [6],16.53
same,"Ratio, DDIT4",BCBL-1 cells [2]; [6],24.97
same,"Ratio, FOS",BCBL-1 cells [2]; [6],77
same,"Ratio, IFNG",BCBL-1 cells [2]; [6],0.1337
same,"Ratio, IRF7",BCBL-1 cells [2]; [6],28.87
same,"Ratio, LGALS9B",BCBL-1 cells [2]; [6],0.03508
same,"Ratio, MCM5",BCBL-1 cells [2]; [6],0.1
same,"Ratio, PRKCB",BCBL-1 cells [2]; [6],0.03195
same,"Ratio, RP11-707M3.3",BCBL-1 cells [2]; [6],0.2332
same,"Ratio, SOCS3",BCBL-1 cells [2]; [6],41.85
same,"Ratio, SPINT1",BCBL-1 cells [2]; [6],0.1311
same,"Expression of viral genes (LANA, RTA, ORF26)",KSHV [3],significantly increased
same,Cytotoxicity in primary cells HUVEC,HUVEC,much less cytotoxicity
same,"H3K9Ac, H4K9Ac and Acetyl-tubulin protein levels",HDACs,increased
same,Viral DNA levels,KSHV [4],slightly increased
same,CC50,BCP-1,28 nM
same,"PEL tumor progression (ascites formation, spleen enlargement)",BCBL-1 cells [5]; i.p.,dramatically suppressed PEL tumor progression
same,Tumor infiltration into the spleen (H&E),BCBL-1 cells [5]; i.p.,only diffuse small tumor nodules
same,Visible toxicity in mice (abnormal weight loss),BCBL-1 cells [5]; i.p.,not observed
same,"Tumor burden in mice (ascites formation, spleen enlargement)",BCBL-1 cells [5]; oral administration,effectively repressed tumor burden
"COC(=O)c1ccc([C@@H](C)OC(=O)C[C@@H]2N=C(c3ccc(Cl)cc3)c3c(sc(C)c3C)-n3c(C)nnc32)cc1 [009N3, methyl 4-((R)-1-(2-((S)-4-(4-chlorophenyl)-2,3,9-trimethyl-6H-thieno[3,2-f][1,2,4]triazolo[4,3-a][1,4]diazepin-6-yl)acetoxy)ethyl)benzoate]",CC50,BC-1,1470 nM
same,CC50,JSC-1,9840 nM
same,c-Myc expression,BRD4,drastically downregulated
same,CC50,BCBL-1,670 nM
same,CC50,BCP-1,2430 nM
"COC(=O)c1ccc([C@H](C)OC(=O)C[C@@H]2N=C(c3ccc(Cl)cc3)c3c(sc(C)c3C)-n3c(C)nnc32)cc1 [009N4, methyl 4-((S)-1-(2-((S)-4-(4-chlorophenyl)-2,3,9-trimethyl-6H-thieno[3,2-f][1,2,4]triazolo[4,3-a][1,4]diazepin-6-yl)acetoxy)ethyl)benzoate]",CC50,BC-1,340 nM
same,CC50,JSC-1,2320 nM
same,c-Myc expression,BRD4,drastically downregulated
same,CC50,BCBL-1,180 nM
same,CC50,BCP-1,530 nM
